Patent US10647713B2 (Nimbus Lakshmi, Inc., priority 2016, dated 2020)

target: human TYK2 (JH2domain-pseudokinase) (Homo sapiens (Human), UniProt P29597); assay: TYK2 JH2 Domain Binding Assay (KINOMEscan, DiscoveRx); conditions: 11-point dilution, duplicate
How it was run: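 TYK2 JH2 (G556–D888)–NFkB DBD fusion, DNA-tagged, from HEK293 extracts (<0.1 nM) competed against immobilised biotinylated ligand for 1 h at room temperature, 0.9% DMSO. Bead-retained kinase quantified by qPCR; Kd from 11-point 3-fold series (top 30,000 nM, duplicate), Hill fit with slope −1.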

Sequence of human TYK2 (JH2domain-pseudokinase) (P29597 556-888): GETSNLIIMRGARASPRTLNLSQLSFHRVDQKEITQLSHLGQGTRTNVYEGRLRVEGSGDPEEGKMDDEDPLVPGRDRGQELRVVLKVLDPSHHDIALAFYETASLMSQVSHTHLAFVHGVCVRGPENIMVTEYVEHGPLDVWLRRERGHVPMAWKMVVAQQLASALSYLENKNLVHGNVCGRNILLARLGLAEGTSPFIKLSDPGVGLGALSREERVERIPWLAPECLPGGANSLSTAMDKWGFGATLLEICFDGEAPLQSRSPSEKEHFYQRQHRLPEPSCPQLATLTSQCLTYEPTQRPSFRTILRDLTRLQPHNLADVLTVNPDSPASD

Row | Kd | Compound
1 | > 10000 pM | COc1c(Nc2cc(Nc3ccc(C(C)(C)OC)c(C#N)n3)nc3[nH]c(C(F)F)nc23)cccc1-c1nnn(C)n1 [I-49, 6-((2-(difluoromethyl)-7-((2-methoxy-3-(2-methyl-2H-tetrazol-5-yl)phenyl)amino)-3H-imidazo[4,5-b]pyridin-5-yl)amino)-3-(2-methoxypropan-2-yl)picolinonitrile]
2 | > 10000 pM | COc1c(Nc2cc(NC(=O)C3CC3)nc3[nH]c(C(F)F)nc23)cccc1-n1cnc(C)n1 [I-51, N-(2-(difluoromethyl)-7-((2-methoxy-3-(3-methyl-1H-1,2,4-triazol-1-yl)phenyl)amino)-3H-imidazo[4,5-b]pyridin-5-yl)cyclopropanecarboxamide]
3 | 1000 to 10000 pM | COc1c(Nc2cc(Nc3cnc(C(C)(C)OC)c(C)n3)nc3[nH]c(C(F)F)nc23)cccc1-c1nnn(C)n1 [I-56, 2-(difluoromethyl)-N7-(2-methoxy-3-(2-methyl-2H-tetrazol-5-yl)phenyl)-N5-(5-(2-methoxypropan-2-yl)-6-methylpyrazin-2-yl)-3H-imidazo[4,5-b]pyridine-5,7-diamines]
4 | < 100 pM | Cc1ccc(Nc2cc(Nc3ccccc3N(C)S(C)(=O)=O)c3nc(C(F)F)[nH]c3n2)nc1C#N [I-60, N-(2-((5-((6-cyano-5-methylpyridin-2-yl)amino)-2-(difluoromethyl)-3H-imidazo[4,5-b]pyridin-7-yl)amino)phenyl)-N-methylmethanesulfonamides]
5 | 100 to 500 pM | Cn1cnc(-c2ccc(Nc3cc(NC(=O)C4CC4)nc4[nH]c(C(F)F)nc34)c(S(C)(=O)=O)c2)c1 [I-62, N-(2-(difluoromethyl)-7-((4-(1-methyl-1H-imidazol-4-yl)-2-(methylsulfonyl)phenyl)amino)-3H-imidazo[4,5-b]pyridin-5-yl)cyclopropanecarboxamide]
6 | 500 to 1000 pM | Cc1ccn(-c2ccc(Nc3cc(NC(=O)C4CC4)nc4[nH]c(C(F)F)nc34)c(S(C)(=O)=O)c2)n1 [I-63, N-(2-(difluoromethyl)-7-((4-(3-methyl-1H-pyrazol-1-yl)-2-(methylsulfonyl)phenyl)amino)-3H-imidazo[4,5-b]pyridin-5-yl)cyclopropanecarboxamide]
7 | 100 to 500 pM | CN(c1cc(-c2cn(C)cn2)ccc1Nc1cc(NC(=O)C2CC2)nc2[nH]c(C(F)F)nc12)S(C)(=O)=O [I-64, N-(2-(difluoromethyl)-7-((4-(1-methyl-1H-imidazol-4-yl)-2-(N-methylmethylsulfonamido)phenyl)amino)-3H-imidazo[4,5-b]pyridin-5-yl)cyclopropanecarboxamide]
8 | 100 to 500 pM | CN(c1cc(-c2cnn(C)c2)ccc1Nc1cc(NC(=O)C2CC2)nc2[nH]c(C(F)F)nc12)S(C)(=O)=O [I-65, N-(2-(difluoromethyl)-7-((4-(1-methyl-1H-pyrazol-4-yl)-2-(N-methylmethylsulfonamido)phenyl)amino)-3H-imidazo[4,5-b]pyridin-5-yl)cyclopropanecarboxamide]
9 | 1000 to 10000 pM | COc1c(Nc2cc(Nc3cnc(C(C)(C)OC)c(C#N)n3)nc3[nH]c(C(F)F)nc23)cccc1-c1nnn(C)n1 [I-80, 6-((2-(difluoromethyl)-7-((2-methoxy-3-(2-methyl-2H-tetrazol-5-yl)phenyl)amino)-3H-imidazo[4,5-b]pyridin-5-yl)amino)-3-(2-methoxypropan-2-yl)pyrazine-2-carbonitrile]
10 | 500 to 1000 pM | CS(=O)(=O)c1cc(F)ccc1Nc1cc(NC(=O)C2CC2)nc2[nH]c(C(F)F)nc12 [I-85, N-(2-(difluoromethyl)-7-((4-fluoro-2-(methylsulfonyl)phenyl)amino)-3H-imidazo[4,5-b]pyridin-5-yl)cyclopropanecarboxamide]
11 | 500 to 1000 pM | CN(c1ccccc1Nc1cc(Nc2cccc(C(F)(F)F)n2)nc2[nH]c(C(F)F)nc12)S(C)(=O)=O [I-87, N-(2-((2-(difluoromethyl)-5-((6-(trifluoromethyl)pyridin-2-yl)amino)-3H-imidazo[4,5-b]pyridin-7-yl)amino)phenyl)-N-methylmethanesulfonamide]
12 | 100 to 500 pM | Cc1ncc(Nc2cc(Nc3ccc(Cl)cc3N(C)S(C)(=O)=O)c3nc(C(F)F)[nH]c3n2)nc1C [I-93, N-(5-chloro-2-((2-(difluoromethyl)-5-((5,6-dimethylpyrazin-2-yl)amino)-3H-imidazo[4,5-b]pyridin-7-yl)amino)phenyl)-N-methylmethanesulfonamide]
13 | 500 to 1000 pM | CN(c1cc(Cl)ccc1Nc1cc(Nc2cccc(C#N)n2)nc2[nH]c(C(F)F)nc12)S(C)(=O)=O [I-94, N-(5-chloro-2-((5-((6-cyanopyridin-2-yl)amino)-2-(difluoromethyl)-3H-imidazo[4,5-b]pyridin-7-yl)amino)phenyl)-N-methylmethanesulfonamide]

Row | Compound | Kd
14 | COC1CN(c2ccc(Nc3cc(NC(=O)C4CC4)nc4[nH]c(C(F)F)nc34)c(N(C)S(C)(=O)=O)c2)C1 [I-50, N-(2-(difluoromethyl)-7-((4-(3-methoxyazetidin-1-yl)-2-(N-methylmethylsulfonamido)phenyl)amino)-3H-imidazo[4,5-b]pyridin-5-yl)cyclopropanecarboxamide] | 1000 to 10000 pM
15 | COc1c(Nc2cc(NC(=O)C3CC3)nc3[nH]c(C(F)F)nc23)cccc1-c1nn(C)nc1C [I-53, N-(2-(difluoromethyl)-7-((3-(2,5-dimethyl-2H-1,2,3-triazol-4-yl)-2-methoxyphenyl)amino)-3H-imidazo[4,5-b]pyridin-5-yl)cyclopropanecarboxamide] | > 10000 pM
16 | COc1c(Nc2cc(NC(=O)C3CC3)nc3[nH]c(C(F)F)nc23)cccc1-n1nc(C)nc1C [I-54, N-(2-(difluoromethyl)-7-((3-(3,5-dimethyl-1H-1,2,4-triazol-1-yl)-2-methoxyphenyl)amino)-3H-imidazo[4,5-b]pyridin-5-yl)cyclopropanecarboxamide] | > 10000 pM
17 | COc1c(Nc2cc(NC(=O)C3CC3)nc3[nH]c(C(F)F)nc23)cccc1-n1ncnc1C [I-55, N-(2-(difluoromethyl)-7-((2-methoxy-3-(5-methyl-1H-1,2,4-triazol-1-yl)phenyl)amino)-3H-imidazo[4,5-b]pyridin-5-yl)cyclopropanecarboxamide] | > 10000 pM
18 | CS(=O)(=O)c1cc(Cl)ccc1Nc1cc(NC(=O)C2CC2)nc2[nH]c(C(F)F)nc12 [I-58, N-(7-((4-chloro-2-(methylsulfonyl)phenyl)amino)-2-(difluoromethyl)-3H-imidazo[4,5-b]pyridin-5-yl)cyclopropanecarboxamide] | 500 to 1000 pM
19 | Cc1ncc(Nc2cc(Nc3ccccc3N(C)S(C)(=O)=O)c3nc(C(F)F)[nH]c3n2)nc1C [I-59, N-(2-((2-(difluoromethyl)-5-((5,6-dimethylpyrazin-2-yl)amino)-3H-imidazo[4,5-b]pyridin-7-yl)amino)phenyl)-N-methylmethanesulfonamide] | 100 to 500 pM
20 | Cn1ccc(-c2ccc(Nc3cc(NC(=O)C4CC4)nc4[nH]c(C(F)F)nc34)c(S(C)(=O)=O)c2)n1 [I-61, N-(2-(difluoromethyl)-7-((4-(1-methyl-1H-pyrazol-3-yl)-2-(methylsulfonyl)phenyl)amino)-3H-imidazo[4,5-b]pyridin-5-yl)cyclopropanecarboxamide] | 100 to 500 pM
21 | CN(c1cc(N2CCC2)ccc1Nc1cc(NC(=O)C2CC2)nc2[nH]c(C(F)F)nc12)S(C)(=O)=O [I-89, N-(7-((4-(azetidin-1-yl)-2-(N-methylmethylsulfonamido)phenyl)amino)-2-(difluoromethyl)-3H-imidazo[4,5-b]pyridin-5-yl)cyclopropanecarboxamide] | 500 to 1000 pM
